# pEC50, pIC50: −log10 of the molar value.
# How the values were obtained:
# [1] = In vitro inhibition of eucaryotic translation using […].; format: functional
# [2] = test system: Escherichia coli; experiment: In vitro inhibition of procaryotic translation using Escherichia coli S30 Extract system for Circular DNA.; format: functional
# [3] = test system: Staphylococcus aureus; experiment: Minimum inhibitory concentration against Staphylococcus aureus in vitro.; format: functional
# [4] = test system: J774; experiment: Cytotoxicity against macrophage cell line (J774); format: functional, cell-based; conditions: Mus musculus
# [5] = test system: Mus musculus; experiment: In vivo inhibitory activity against Staphylococcus aureus 133 after iv dose using murine sepsis model; format: functional
# [6] = In vitro selectivity ratio of procaryotic translation to eukaryotic translation; format: functional
Compound,pIC50 [1],pIC50 [2],MIC [3],pEC50 [4],ED100 [5],Selectivity ratio [6]
CN(C(=O)C[C@@H](N)CC(O)CCN)C1CN=C(NC(N)=O)NC1=O.Cl.Cl (some centres not stated),5.49,5.52,0.4 µg/mL,,,
C/N=C(/N)NCCC[C@H](N)CC(=O)N(C)C1CN=C(NC(N)=O)NC1=O.Cl.Cl (some centres not stated),5.35,,0.8 µg/mL,5.26,2 mg/kg,9.1
CN(C(=O)C[C@@H](N)CCCC#N)C1CN=C(NC(N)=O)NC1=O.Cl (some centres not stated),4.60,4.60,50 µg/mL,,,1
CN(C(=O)CC(N)CC1CNCCO1)C1CN=C(NC(N)=O)NC1=O.Cl.Cl (configuration not stated),,5.82,6.3 µg/mL,,,
CN(C(=O)C[C@H](N)CCCN)C1CN=C(NC(N)=O)NC1=O.Cl.Cl (some centres not stated),5.03,5.22,6.3 µg/mL,,,1.6
CN(C(=O)C[C@@H](N)CC(=O)CCN)C1CN=C(NC(N)=O)NC1=O.Cl.Cl (some centres not stated),,5.52,3.2 µg/mL,,,
CN(C(=O)C[C@@H](N)CCN=C(N)N)C1CN=C(NC(N)=O)NC1=O.Cl.Cl (some centres not stated),5.92,5.92,25 µg/mL,,,1
CN(C(=O)C[C@@H](N)CC[C@H](N)CO)C1CN=C(NC(N)=O)NC1=O.Cl.Cl (some centres not stated),5.62,5.62,3.2 µg/mL,,,1
COC(=O)NCCC[C@H](N)CC(=O)N(C)C1CN=C(NC(N)=O)NC1=O (some centres not stated),,< 4.19,100 µg/mL,,,
CN(C(=O)CC(N)CCCO)C1CN=C(NC(N)=O)NC1=O.Cl (configuration not stated),,< 4.19,100 µg/mL,,,
CN(C(=O)C[C@@H](N)CCCCN)C1CN=C(NC(N)=O)NC1=O.Cl.Cl (some centres not stated),5.55,,0.05 µg/mL,5.22,0.25 mg/kg,5.3
CN(C(=O)C[C@@H](N)CCCCN=C(N)N)C1CN=C(NC(N)=O)NC1=O.Cl.Cl (some centres not stated),5.80,6.52,0.2 µg/mL,,,5.3
CCNCCC[C@H](N)CC(=O)N(C)C1CN=C(NC(N)=O)NC1=O.Cl.Cl (some centres not stated),5.12,5.40,0.8 µg/mL,,,1.9
CN(C(=O)CC(N)c1cccc(NC(=N)N)c1)C1CN=C(NC(N)=O)NC1=O.Cl.Cl (configuration not stated),6.59,6.30,50 µg/mL,,,0.52
Br.Br.CN(C(=O)C[C@@H](N)CCCNC1=NCCN1)C1CN=C(NC(N)=O)NC1=O (some centres not stated),5.03,5.03,12.5 µg/mL,,,1
CC(N)CCC(N)CC(=O)N(C)C1CN=C(NC(N)=O)NC1=O.Cl.Cl (configuration not stated),5.92,6.00,0.4 µg/mL,,,1.2
C/C(N)=N/CCC[C@H](N)CC(=O)N(C)C1CN=C(NC(N)=O)NC1=O.Cl.Cl (some centres not stated),6.22,,0.4 µg/mL,,,0.17
CN(C(=O)C[C@@H](N)CCCN)C1CN=C(NC(N)=O)NC1=O.Cl.Cl (some centres not stated),5.43,5.70,0.4 µg/mL,4.60,0.2 mg/kg,1.9
CN(C(=O)C[C@@H](N)CCCN=C(N)N)C1CN=C(NC(N)=O)NC1=O.Cl.Cl (some centres not stated),6.77,,0.1 µg/mL,6.60,0.25 mg/kg,0.57
CN(C(=O)C[C@@H](N)CCC/N=C(/N)S)C1CN=C(NC(N)=O)NC1=O.Cl (some centres not stated),6.70,6.70,0.4 µg/mL,,,1
CN(C(=O)C[C@@H](N)CCC(N)=O)C1CN=C(NC(N)=O)NC1=O.Cl (some centres not stated),,4.19,12.5 µg/mL,,,
